# Laboratory results from patent publication US11304926B2, “Application of transient receptor potential cation channel TRPV3 in developing drug for preventing or treating psoriasis” (CHINA PHARMACEUTICAL UNIVERSITY, priority 2019, dated 2022).
# Entries after “also recorded” stand apart in the source; their conditions may differ.
# What was measured:
# [1] = system: mouse psoriasis model induced by 5% IMQ; test: Neutrophil infiltration (Ly6G+ cells, immunofluorescence) of mouse psoriasis model; type: in vivo; conditions: 5% IMQ model
# mTRPV3 = molecular target: T1, mTRPV3 (Mus musculus, UniProt Q8K424); test: Whole-cell patch clamp of 2-APB induced current in mTRPV3-HEK-293 cells; type: cell-based
# T1 construct: expressed in transfected cells
# T1 sequence (Q8K424 1-791): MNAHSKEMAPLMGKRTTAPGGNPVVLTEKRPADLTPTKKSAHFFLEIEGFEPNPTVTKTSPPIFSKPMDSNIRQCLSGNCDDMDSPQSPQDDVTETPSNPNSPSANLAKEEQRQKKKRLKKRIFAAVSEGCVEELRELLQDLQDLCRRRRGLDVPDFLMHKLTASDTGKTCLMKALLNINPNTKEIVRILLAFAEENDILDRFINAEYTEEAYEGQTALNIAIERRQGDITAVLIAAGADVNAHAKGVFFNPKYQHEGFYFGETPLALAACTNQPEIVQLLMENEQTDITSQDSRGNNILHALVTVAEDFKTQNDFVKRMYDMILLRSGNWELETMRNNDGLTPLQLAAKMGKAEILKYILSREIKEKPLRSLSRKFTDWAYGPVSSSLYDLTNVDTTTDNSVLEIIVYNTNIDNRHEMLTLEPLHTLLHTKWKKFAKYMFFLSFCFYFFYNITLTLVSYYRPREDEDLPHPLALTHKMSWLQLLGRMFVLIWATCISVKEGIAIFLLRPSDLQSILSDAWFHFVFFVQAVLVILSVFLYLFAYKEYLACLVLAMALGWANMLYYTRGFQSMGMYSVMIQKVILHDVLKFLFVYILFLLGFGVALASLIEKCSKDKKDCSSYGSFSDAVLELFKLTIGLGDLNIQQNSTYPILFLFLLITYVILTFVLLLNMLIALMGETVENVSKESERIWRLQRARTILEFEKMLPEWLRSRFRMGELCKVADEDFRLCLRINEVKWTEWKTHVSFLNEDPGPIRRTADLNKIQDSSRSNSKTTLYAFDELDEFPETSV
# Protocol: mTRPV3 plasmids were donated by Professor Jie Zheng from UC Davis. Transfection steps were as follows: HEK-293 cells with a confluence ranging from 70% to 80% and a good growth state were seeded into T-60 small dishes the day before transfection, each small dish contained 4×10^5 cells, and the cells were cultured without penicillin/streptomycin overnight at 37° C. in 5% CO2. 10 μL of plasmids (plasmid concentration was 1000 ng/μL) were diluted with 250 μl of DMEM (article number: 12800017, Gibco), and meanwhile, 10 μL of Lipofectamine 2000 (article number: 11668027, Gibco) was diluted into 250 μL of DMEM. […] Monoclone cells were selected by a limiting dilution method: the screened cells were digested and counted, and seeded into a 96-well plate in sequence at densities of 10^4 cells/well, 10^3 cells/well, 10^2 cells/well, 10 cells/well, and 1 cell/well. Under a fluorescence microscope, wells of separate cells with green fluorescence were labeled, and cells amplified from the wells were HEK-293 cells stably transfecting the mTRPV3. […] HEK-293 cells stably transecting mTRPV3 (mTRPV3-HEK-293) were seeded into T-60 small dishes with a confluence ranging from 20% to 30%, and whole cell current was recorded by a patch clamp amplification system next day. […]
# [2] = system: mouse psoriasis model induced by 5% IMQ; test: Histopathological examination (HE staining, epidermal thickness) of mouse psoriasis model under drug intervention; type: in vivo; conditions: subcutaneous injection, 5% IMQ model
# From the text: After sacrifice of the mice, skin tissues were collected, fixed with 10% (mass fraction) paraformaldehyde solution, embedded in paraffin, and then subjected to 3 μm slicing and HE staining. An Eclipse Ti inverted microscope (Nikon Corporation, Tokyo, Japan) was used to observe and take a photo at 400-times magnification, and NIS-element BR software (Nikon Corporation, Tokyo, Japan) was used to measure an epidermal thickness of the skin. Six fields of view were randomly selected for each section. […] It should be noted that measurement data was represented by mean±standard deviation (mean±SD), and was detected by One-Way ANOVA, wherein ** represented that P<0.01, which was relative to the vaseline group.
smiles,measurement,setting,value
O=c1cc(-c2ccc(O)cc2)oc2cc(O)c(O)c(O)c12 [Scutellarein],neutrophil infiltration,[1],obviously reduce
same,inhibition of whole-cell current induced by 2-APB,"mTRPV3; Scutellarein 0.3-30 μM, 2-APB 100 μM, mTRPV3-HEK-293",could inhibit the whole-cell current induced by the 2-APB and had a dose dependence; also recorded: obvious inhibitory effect
same,IC50,"mTRPV3; whole-cell patch clamp, mTRPV3-HEK-293, 2-APB 100 μM, nonlinear fitting",1010 nM
same,epidermal thickness at lesion part,[2],significantly reduce
same,pathological changes of the skin induced by imiquimod,[2],could improve the above pathological changes
